ChEMBL document CHEMBL1135192, “Translocation of the 5-alkoxy substituent of 2,5-dialkoxyarylalkylamines to the 6-position: effects on 5-HT(2A/2C) receptor affinity” (Bioorg Med Chem Lett, 2002)

How the values were obtained:
[1] = biological target: T1, 5-hydroxytryptamine receptor 2C (Rattus norvegicus, UniProt P08909); test: Compound was evaluated for its ability to displace (+/-)[125I]-DOI from 5-hydroxytryptamine 2C receptor in cloned rat cell culture
T1 sequence (P08909 whole entry): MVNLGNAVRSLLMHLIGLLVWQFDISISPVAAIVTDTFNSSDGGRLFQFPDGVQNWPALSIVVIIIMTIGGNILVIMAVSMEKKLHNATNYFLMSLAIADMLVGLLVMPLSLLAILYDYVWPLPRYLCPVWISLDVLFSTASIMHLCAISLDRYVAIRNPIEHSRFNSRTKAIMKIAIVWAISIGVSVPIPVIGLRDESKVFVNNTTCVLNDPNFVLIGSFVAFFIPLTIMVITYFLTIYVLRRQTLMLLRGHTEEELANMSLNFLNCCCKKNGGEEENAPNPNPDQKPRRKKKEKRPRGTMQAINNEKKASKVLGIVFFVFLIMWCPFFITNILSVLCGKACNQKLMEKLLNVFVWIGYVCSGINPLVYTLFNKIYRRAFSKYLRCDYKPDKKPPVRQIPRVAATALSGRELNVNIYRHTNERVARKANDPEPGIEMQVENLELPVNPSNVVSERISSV

[2] = biological target: T2, 5-hydroxytryptamine receptor 2A (Rattus norvegicus, UniProt P14842); test: Compound was evaluated for its ability to displace (+/-)[125I]-DOI from 5-hydroxytryptamine 2A receptor in cloned rat cell culture
Rattus norvegicus = organism: Rattus norvegicus; test: Drug discrimination in LSD-trained rats; format: functional
[3] = biological target: T2, 5-hydroxytryptamine receptor 2A; test: biochemical
Description: Compound was evaluated for its ability to displace [125I](R)-DOI from 5-hydroxytryptamine 2A receptor in cloned rat prefrontal cortex homogenate

T2 sequence (P14842 whole entry): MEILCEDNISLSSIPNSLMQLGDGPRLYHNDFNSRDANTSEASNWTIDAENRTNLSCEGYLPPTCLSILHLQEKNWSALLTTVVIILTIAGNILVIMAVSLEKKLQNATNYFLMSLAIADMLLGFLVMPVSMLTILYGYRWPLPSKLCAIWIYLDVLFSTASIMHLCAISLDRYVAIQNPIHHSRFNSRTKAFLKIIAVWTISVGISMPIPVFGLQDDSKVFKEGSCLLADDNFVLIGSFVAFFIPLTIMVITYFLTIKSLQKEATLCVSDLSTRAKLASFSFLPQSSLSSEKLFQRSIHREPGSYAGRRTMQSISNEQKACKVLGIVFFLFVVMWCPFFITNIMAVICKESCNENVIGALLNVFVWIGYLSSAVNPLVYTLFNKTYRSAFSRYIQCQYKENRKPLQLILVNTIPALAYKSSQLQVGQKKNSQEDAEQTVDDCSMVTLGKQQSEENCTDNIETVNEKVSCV

Row | Compound | Ki [1] [nM] | Ki [2] [nM] | ED50 (Rattus norvegicus) [µmol/kg] | Ki [3] [nM]
1 | COc1cc(C)cc(OC)c1CC(C)N (stereo not drawn) | 50 | 49 |  | 
2 | Cc1c2c(c(CC(C)N)c3c1CCO3)OCC2 (stereo not drawn) | 7.5 | 6.3 |  | 
3 | COc1cc(CC(C)N)c(OC)cc1C (stereo not drawn) [DOM] |  |  | 0.89 | 19
4 | Cc1c2ccoc2c(CC(C)N)c2occc12 (stereo not drawn) | 0.9 | 1.8 |  | 
